{"source": "patent US20260108547A1", "about": "“LEVERAGING L-FUCOSE-MEDIATED SIGNALING TO INDUCE MONOCYTE-DERIVED DENDRITIC CELL POLARIZATION” (H. LEE MOFFITT CANCER CENTER AND RESEARCH INSTITUTE, INC., priority 2022, published 2026)", "test_system": "SW1 tumors", "assay": "Flow cytometric profiling of tumors and lymph nodes, SW1 tumors in C3H/HeN mice fed ± L-fucose and treated ± FTY720 (Table 1)", "assay_type": "in vivo, mouse", "details": "for average # of CD8 stem central memory cells: tumors", "procedure": "Tumors of SW1 or SM1 melanoma cells from […] or C57BL/6 mice, respectively) were digested using 1× tumor digest buffer (0.5 mg/mL Collagenase I, 0.5 mg/mL Collagenase IV, 0.25 mg/mL Hyalyronidase V, 0.1 mg/mL DNAse I in HBSS (Millipore Sigma (St. Louis, MO)). Tumors were homogenized using the Miltenyi MACs dissociator. Red blood cells were lysed using ACK lysis buffer (Life Technologies, (Grand Island, NY)). Tumor homogenate cells were counted using a standard hemocytometer.\nTotal TILs were gated first to single cells (based on forward scatter height vs width, followed by side scatter height vs. width). Live cells were gated from the Zombie negative population from the population above. TILs were gated based on splenocyte size from a control spleen. Individual immune subpopulations were sub-gated from the total TIL population using the following staining criteria: CD3^+ for CD3^+ T cells; CD3^+/CD4^+/CD8^− for CD4^+T cells; CD3^+/CD4^−/CD8^+ for CD8^+ T cells, CD11c^+/CD11b^+ for DCs; either NK1.1 (for C57/BL6 mice) or DX5 (for C3H/HeJ) for NK cells; CD11b^+/GR1^+ for MDSC-like cells; and F4/80^+ for macrophages. Single-cell suspensions from tumor and spleen tissue were stained with Live/Dead Zombie NIR (Biolegend, (San Diego, CA)) at 1:1,000 in PBS for 20 min. Cell suspensions were spun down and stained with the following with antibodies at 0.5 μg/ml per antibody: APC anti-mouse CD3, Pacific Blue anti-mouse CD4, BV785 anti-mouse CD8, PerCP anti-mouse CD25, FITC anti-mouse F4/80, PeCy7 anti-mouse CD11c, PE anti-mouse NK1.1 or PE anti-mouse DX5, and PerCP-Cy5.5 anti-mouse CD11b. After staining, the cells were washed and fixed (2% formaldehyde), followed by another wash and flow cytometric analysis. The compensation controls were prepared using 0.5 μg/mL of each antibody with UltraComp eBeads, (ThermoFisher Scientific (Waltham, MA)). All samples were subject to flow cytometric profiling using a LSR Flow Cytometer (BD Biosciences (San Jose, CA)) and analysis as indicated using FlowJo software (BD Biosciences (San Jose, CA)).\nFor all mouse models, 1×10^6 melanoma cells were injected subcutaneously in the right hind flanks of each mouse. […] This dosage is within ranges for dietary supplementation with L-fucose and other similar dietary sugars (e.g., D-mannose) in other rodent studies. When the tumors reached −2 cm^3, the animals were sacrificed, and the tumors either processed for flow cytometric profiling or for histological analysis as indicated.\nControl vs. L-fucose±FTY720 models (FIG. 2): SW1 or SM1 mouse melanoma cells were injected into syngeneic C3H/HeN (or NSG) female or C57BL/6 male mice, respectively. Cells were injected as follows: parental SW1 cells for FIG. 1A; parental SM1 cells for FIG. 1E; SW1 cells stably expressing either empty vector (EV) or mouse fucose kinase (mFuk) for FIG. 1L; and parental SW1 cells for FIG. 1M. FTY720 was administered at 20 μg every 2 days starting on Day 12, just prior to the initiation of LF, until endpoint.", "data": [{"smiles": "C[C@H](O)[C@@H](O)[C@@H](O)[C@H](O)C=O", "note": "[L-fucose]", "values": [{"measurement": "average # of CD8 stem central memory cells", "setting": "Day 28", "result": 0.00, "unit": "per 10^6 cells"}, {"measurement": "average # of CD8 stem central memory cells", "setting": "Day 42", "result": 0.00, "unit": "per 10^6 cells"}, {"measurement": "intratumoral CD4+T central and effector memory subpopulations", "setting": "SW1 model ± FTY720", "result": "increases"}, {"measurement": "cytotoxic CD4+T cells", "setting": "midpoint (Day 28)", "result": "transiently but significantly increased"}, {"measurement": "intratumoral monocyte-derived DCs (moDCs) and lymph node cDC2s", "setting": "oral L-fuc, SW1 model", "result": "significant, albeit transient, increases"}]}]}
